Results from US8461150B2, “Chalcone linked pyrrolo[2,1-c][1, 4]benzodiazepine hybrids as potential anticancer agents and process for the preparation thereof” (Council of Scientific & Industrial Research, priority 2008, dated 2013).

Experiments:
[1] = tested on: duplex-form calf thymus DNA (CT-DNA); assay: Thermal denaturation studies with calf thymus DNA; type: binding; conditions: [PBD]:[DNA] molar ratio 1:5, CT-DNA 100 μM, ligand 20 μM, pH 7.00; for ΔTμ (° C.) after incubation at 37 °C. for 0 h: 0 h incubation; for ΔTμ (° C.) after incubation at 37 °C. for 18 h: 18 h incubation
Procedure: These compounds have also been subjected to thermal denaturation studies with duplex-form calf thymus DNA (CT-DNA) using an modification of a reported procedure. Working solutions in aqueous buffer (10 mM NaH2PO4/Na2HPO4, 1 mM Na2EDTA, pH 7.00+0.01) containing CT-DNA (100 μm in phosphate) and the PBD (20 μm) have been prepared by addition of concentrated PBD solutions in DMSO to obtain a fixed [PBD]/[DNA] molar ratio of 1:5. The DNA-PBD solutions have been incubated at 37° C. for 0 and 18 h prior to analysis. Samples have been monitored at 260 nm using a Beckman DU-800 spectrophotometer fitted with high performance temperature controller, and heated at 1° C. min^−1 in the 40-110° C. range. DNA helix→coil transition temperatures (Tm) have been obtained from the maxima in the d(A260)/d T derivative plots. Drug-induced alterations in DNA melting behavior are given by: ΔTm=Tm(DNA+PBD)−Tm(DNA alone), where the Tm value for the PBD-free CT-DNA is 68.5±0.01.

[2] = tested on: U251 (CNS); assay: Cytotoxicity in selected cancer cell lines (SRB, 48 h); type: cell-based, human
Procedure: (§1) Biological Activity: The in vitro cell line studies were carried out at the National Cancer Institute, Maryland, USA.
(§2) 6b, 6c, 6g, 10a and 10b were evaluated for in vitro anticancer activity against sixty human tumour cells derived from nine cancer types (leukemia, non-small-cell lung, colon, CNS, melanoma, ovarian, prostate, renal and breast cancer) as shown in (Table 1 and 2). For the compound, dose response curves for each cell line were measured at a minimum of five concentrations at 10 fold dilutions. A protocol of 48 h continuous drug exposure was used and a sulforhodamine B (SRB) protein assay was used to estimate cell viability or growth. The concentration causing 50% cell growth inhibition (GI50), total cell growth inhibition (TGI 0% growth) and 50% cell death (LC50, −50% growth) compared with the control was calculated.
(§3) Each cancer type represents the average of six to nine different cancer cell lines. In vitro evaluation of cytotoxic activity. The compound 6b, 6c, 6g 10a and 10b were evaluated for in vitro anticancer activity against nine human tumour cells derived from six cancer types (leukemia, colon, prostate, melanoma, ovarian, lung, cervix and breast cancer) as shown in Table 3. […] Compounds 6b, 6c, 6g, 10a and 10b have been evaluated for their in vitro cytotoxicity in selected human cancer cell lines of colon (Colo205), lung (NCI-H522, NCI-H226), colon (colo-205), prostate (DU145, PC3), ovarian (IGROV1, HT1080), and breast (MDA-MB-435, Zr-75-1), melanoma (LOXMIVI, VACC-62, SK-MEL-5) origin. A protocol of 48 h continuous drug exposure has been used and an […] has been used to estimate cell viability or growth. The results are expressed as percent of cell growth determined relative to that of untreated control cells

[3] = tested on: MALME-3M (Melanoma); assay: as above; type: cell-based, human
Procedure: as §1, §2, §3

[4] = tested on: LOX IMVI (Melanoma); assay: as above; type: cell-based, human
Procedure: as §1, §2, §3

[5] = tested on: CCRF-CEM (Leukemia); assay: as above; type: cell-based, human
Procedure: as §1, §2, §3

[6] = tested on: HCT-116 (Colon); assay: as above; type: cell-based, human
Procedure: as §1, §2, §3

[7] = tested on: HL-60(TB) (Leukemia); assay: as above; type: cell-based, human
Procedure: as §1, §2, §3

[8] = tested on: SK-MEL-5 (Melanoma); assay: as above; type: cell-based, human
Procedure: as §1, §2, §3

[9] = tested on: MDA-MB-231/ATCC (Breast); assay: as above; type: cell-based, human
Procedure: as §1, §2, §3

[10] = tested on: M14 (Melanoma); assay: as above; type: cell-based, human
Procedure: as §1, §2, §3

[11] = tested on: RPMI-8226 (Leukemia); assay: as above; type: cell-based, human
Procedure: as §1, §2, §3

[12] = tested on: TK-10 (Renal); assay: as above; type: cell-based, human
Procedure: as §1, §2, §3

[13] = tested on: NCI-H522 (Non-small cell lung); assay: as above; type: cell-based, human
Procedure: as §1, §2, §3

[14] = tested on: UACC-62 (Melanoma); assay: as above; type: cell-based, human
Procedure: as §1, §2, §3

[15] = tested on: OVCAR-3 (Ovarian); assay: as above; type: cell-based, human
Procedure: as §1, §2, §3

[16] = tested on: NCI/ADR-RES (Breast); assay: as above; type: cell-based, human
Procedure: as §1, §2, §3

[17] = tested on: 786-0 (Renal); assay: as above; type: cell-based, human
Procedure: as §1, §2, §3

[18] = tested on: A498 (Renal); assay: as above; type: cell-based, human
Procedure: as §1, §2, §3

[19] = tested on: ACHN (Renal); assay: as above; type: cell-based, human
Procedure: as §1, §2, §3

[20] = tested on: UACC-257 (Melanoma); assay: as above; type: cell-based, human
Procedure: as §1, §2, §3

[21] = tested on: SW-620 (Colon); assay: as above; type: cell-based, human
Procedure: as §1, §2, §3

[22] = tested on: NCI-H226 (Non-small cell lung); assay: as above; type: cell-based, human
Procedure: as §1, §2, §3

[23] = tested on: HCT-15 (Colon); assay: as above; type: cell-based, human
Procedure: as §1, §2, §3

[24] = tested on: CAKI-1 (Renal); assay: as above; type: cell-based, human
Procedure: as §1, §2, §3

[25] = tested on: NCI-H23 (Non-small cell lung); assay: as above; type: cell-based, human
Procedure: as §1, §2, §3

[26] = tested on: UO-31 (Renal); assay: as above; type: cell-based, human
Procedure: as §1, §2, §3

[27] = tested on: SF-539 (CNS); assay: as above; type: cell-based, human
Procedure: as §1, §2, §3

SMILES	ΔTμ (° C.) after incubation at 37 °C. for 0 h [1] [°C]	ΔTμ (° C.) after incubation at 37 °C. for 18 h [1] [°C]	GI50 [2] [µM]	GI50 [3] [µM]	GI50 [4] [µM]	GI50 [5] [µM]	GI50 [6] [µM]	GI50 [7] [µM]	GI50 [8] [µM]	GI50 [9] [µM]	GI50 [10] [µM]	GI50 [11] [µM]	GI50 [12] [µM]	GI50 [13] [µM]	GI50 [14] [µM]	GI50 [15] [µM]	GI50 [16] [µM]	GI50 [17] [µM]	GI50 [18] [µM]	GI50 [19] [µM]	other results
COc1cc(C=CC(=O)c2ccc(F)cc2)ccc1OCCCCOc1cc2c(cc1OC)C(=O)N1CCC[C@H]1C=N2 [6b, 7-Methoxy-8-{4-[1-(4-fluorophenyl)-3-(4-hydroxy-3-methoxyphenyl)-2-propen-1-one]butyl}-oxy-(11aS)-1,2,3,11a-5H-pyrrolo[2,1-c][1,4]benzodiazepin-5-one]	2.2	2.6	14.8	18.2	10	16	11.2	29	10	11.6	10.1	13	16.6	11.5	10	37	13.8	19.8	26.1	43.4	GI50 [20]: 70.9 µM; GI50 [21]: 13.5 µM; GI50 [22]: 14 µM; GI50 [23]: 28.5 µM; GI50 [24]: 13.6 µM; GI50 [25]: 19.2 µM; GI50 [26]: 19.2 µM; GI50 [27]: 29.6 µM
COc1cc(C=CC(=O)c2ccc(F)cc2)ccc1OCCCCCOc1cc2c(cc1OC)C(=O)N1CCC[C@H]1C=N2 [6c, 7-Methoxy-8-{5-[1-(4-fluorophenyl)-3-(4-hydroxy-3-methoxyphenyl)-2-propen-1-one]pentyl}-oxy-(11aS)-1,2,3,11a-5H-pyrrolo[2,1-c][1,4]benzodiazepin-5-one]	2.4	2.9	15.2	24.2	18.2	25.1	21	28.2	20.9	19.9	14.5	16.4	38.2	65.3	15.1	34.3	17.4	18.4	20.1	42	GI50 [20]: 22.9 µM; GI50 [21]: 18.8 µM; GI50 [22]: 16.5 µM; GI50 [23]: 29.3 µM; GI50 [24]: 15.8 µM; GI50 [25]: 15.8 µM; GI50 [26]: 21.1 µM; GI50 [27]: 30.3 µM
